Legend:
Test in all cases: relative viability (nuclei count vs DMSO), 5 days (fraction); higher = more cells survive
[1] = tested on: NCI-H520
Outline: (§1)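 Lung cancer cell lines in 1536-well plates got either a single drug or a fixed anchor-drug dose together with five library-drug doses (not always all listed) in √10 steps, by pin tool, on the day after seeding. Nuclei were counted after 5 days, and relative viability is the treated-to-vehicle ratio of nuclei counts. Values are medians of duplicate plates.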

[2] = tested on: CAL-12T
Outline: as §1

[3] = tested on: NCI-H650
Outline: as §1

[4] = tested on: LCLC-97TM1
Outline: as §1

[5] = tested on: PC-3 [JPC-3]
Outline: as §1

[6] = tested on: NCI-H2023
Outline: as §1

[7] = tested on: NCI-H596
Outline: as §1

[8] = tested on: ABC-1
Outline: as §1

[9] = tested on: NCI-H1915
Outline: as §1

[10] = tested on: NCI-H661
Outline: as §1

[11] = tested on: LC-2-ad
Outline: as §1

[12] = tested on: NCI-H2087
Outline: as §1

[13] = tested on: NCI-H1944
Outline: as §1

[14] = tested on: 201T
Outline: as §1

[15] = tested on: H3255
Outline: as §1

[16] = tested on: BEN
Outline: as §1

[17] = tested on: A-427
Outline: as §1

[18] = tested on: NCI-H727
Outline: as §1

[19] = tested on: NCI-H460
Outline: as §1

[20] = tested on: HCC-15
Outline: as §1

[21] = tested on: NCI-H1651
Outline: as §1

[22] = tested on: NCI-H441
Outline: as §1

[23] = tested on: NCI-H1792
Outline: as §1

SMILES: CC(C)Oc1cc(Nc2nc(N[C@@H](C)c3ccc(F)cn3)ncc2Cl)n[nH]1 [AZ23] + Cc1nc(NC(=O)N2CCC[C@H]2C(N)=O)sc1-c1ccnc(C(C)(C)C(F)(F)F)c1 [Alpelisib] (partner 2 µM)
- relative viability ([1]; first compound 0.01 µM): 1.06
- relative viability ([1]; first compound 0.03162 µM): 0.988
- relative viability ([1]; first compound 0.3162 µM): 0.752
- relative viability ([2]; first compound 0.01 µM): 0.787
- relative viability ([2]; first compound 0.03162 µM): 1.26
- relative viability ([2]; first compound 0.3162 µM): 1.28
- relative viability ([3]; first compound 0.01 µM): 1.03
- relative viability ([3]; first compound 0.03162 µM): 1.19
- relative viability ([3]; first compound 0.3162 µM): 1.16
- relative viability ([4]; first compound 0.01 µM): 0.228
- relative viability ([4]; first compound 0.03162 µM): 0.246
- relative viability ([4]; first compound 0.3162 µM): 0.245
- relative viability ([5]; first compound 0.01 µM): 1.14
- relative viability ([5]; first compound 0.03162 µM): 1.06
- relative viability ([5]; first compound 0.3162 µM): 0.962
- relative viability ([6]; first compound 0.03162 µM): 0.675
- relative viability ([6]; first compound 0.3162 µM): 0.623
- relative viability ([7]; first compound 0.01 µM): 0.51
- relative viability ([7]; first compound 0.03162 µM): 0.528
- relative viability ([7]; first compound 0.3162 µM): 0.418
- relative viability ([8]; first compound 0.01 µM): 0.717
- relative viability ([8]; first compound 0.03162 µM): 1.23
- relative viability ([8]; first compound 0.3162 µM): 1.14
- relative viability ([9]; first compound 0.01 µM): 1.17
- relative viability ([9]; first compound 0.03162 µM): 1.09
- relative viability ([9]; first compound 0.3162 µM): 1.04
- relative viability ([10]; first compound 0.01 µM): 0.629
- relative viability ([10]; first compound 0.03162 µM): 0.686
- relative viability ([10]; first compound 0.3162 µM): 0.908
- relative viability ([11]; first compound 0.01 µM): 1.01
- relative viability ([11]; first compound 0.03162 µM): 0.895
- relative viability ([11]; first compound 0.3162 µM): 0.892
- relative viability ([12]; first compound 0.01 µM): 1.39
- relative viability ([12]; first compound 0.03162 µM): 1.07
- relative viability ([12]; first compound 0.3162 µM): 1.07
- relative viability ([13]; first compound 0.01 µM): 0.811
- relative viability ([13]; first compound 0.03162 µM): 0.868
- relative viability ([13]; first compound 0.3162 µM): 0.883
- relative viability ([14]; first compound 0.01 µM): 1.03
- relative viability ([14]; first compound 0.03162 µM): 1.09
- relative viability ([14]; first compound 0.3162 µM): 1.02
- relative viability ([15]; first compound 0.01 µM): 0.637
- relative viability ([15]; first compound 0.03162 µM): 0.868
- relative viability ([15]; first compound 0.3162 µM): 0.863
- relative viability ([16]; first compound 0.01 µM): 1.02
- relative viability ([16]; first compound 0.03162 µM): 1.18
- relative viability ([16]; first compound 0.3162 µM): 1.09
- relative viability ([17]; first compound 0.01 µM): 1.13
- relative viability ([17]; first compound 0.03162 µM): 1.1
- relative viability ([17]; first compound 0.3162 µM): 1.08
- relative viability ([18]; first compound 0.01 µM): 0.634
- relative viability ([18]; first compound 0.03162 µM): 0.628
- relative viability ([18]; first compound 0.3162 µM): 0.601
- relative viability ([19]; first compound 0.01 µM): 0.429
- relative viability ([19]; first compound 0.03162 µM): 0.598
- relative viability ([19]; first compound 0.3162 µM): 0.48
- relative viability ([20]; first compound 0.01 µM): 1.13
- relative viability ([20]; first compound 0.03162 µM): 0.857
- relative viability ([20]; first compound 0.3162 µM): 0.877
- relative viability ([21]; first compound 0.01 µM): 0.773
- relative viability ([21]; first compound 0.03162 µM): 1.05
- relative viability ([21]; first compound 0.3162 µM): 1.16
- relative viability ([22]; first compound 0.01 µM): 1.05
- relative viability ([22]; first compound 0.03162 µM): 0.621
- relative viability ([22]; first compound 0.3162 µM): 0.576
- relative viability ([23]; first compound 0.01 µM): 1.08
- relative viability ([23]; first compound 0.03162 µM): 0.831
- relative viability ([23]; first compound 0.3162 µM): 0.83

SMILES: COc1cc(N2CCC(C(N)=O)CC2)ccc1Nc1nc(N)c(Cl)c(Nc2ccccc2S(=O)(=O)C(C)C)n1 [HG-5-88-01] + C[C@]1(O)C[C@@H](c2nc(-c3ccc4ccc(-c5ccccc5)nc4c3)c3c(N)nccn32)C1 [Linsitinib] (partner 1 µM)
- relative viability ([1]; first compound 0.04 µM): 0.926
- relative viability ([1]; first compound 0.1265 µM): 0.832
- relative viability ([1]; first compound 0.4 µM): 0.689
- relative viability ([1]; first compound 1.265 µM): 1.18
- relative viability ([1]; first compound 4 µM): 1.14
- relative viability ([2]; first compound 0.04 µM): 0.773
- relative viability ([2]; first compound 0.1265 µM): 0.592
- relative viability ([2]; first compound 0.4 µM): 0.78
- relative viability ([2]; first compound 1.265 µM): 0.561
- relative viability ([2]; first compound 4 µM): 0.726
- relative viability ([3]; first compound 0.04 µM): 1.01
- relative viability ([3]; first compound 0.1265 µM): 0.985
- relative viability ([3]; first compound 0.4 µM): 0.835
- relative viability ([3]; first compound 1.265 µM): 0.936
- relative viability ([3]; first compound 4 µM): 0.492
- relative viability ([4]; first compound 0.04 µM): 0.183
- relative viability ([4]; first compound 0.1265 µM): 0.201
- relative viability ([4]; first compound 0.4 µM): 0.18
- relative viability ([4]; first compound 1.265 µM): 0.152
- relative viability ([4]; first compound 4 µM): 0.158
- relative viability ([5]; first compound 0.04 µM): 0.964
- relative viability ([5]; first compound 0.1265 µM): 0.956
- relative viability ([5]; first compound 0.4 µM): 0.947
- relative viability ([5]; first compound 1.265 µM): 0.944
- relative viability ([5]; first compound 4 µM): 0.83
- relative viability ([6]; first compound 0.04 µM): 0.695
- relative viability ([6]; first compound 0.1265 µM): 0.683
- relative viability ([6]; first compound 0.4 µM): 0.619
- relative viability ([6]; first compound 1.265 µM): 0.539
- relative viability ([6]; first compound 4 µM): 0.762
- relative viability ([7]; first compound 0.04 µM): 1
- relative viability ([7]; first compound 0.1265 µM): 1.12
- relative viability ([7]; first compound 0.4 µM): 1.2
- relative viability ([7]; first compound 1.265 µM): 1.13
- relative viability ([7]; first compound 4 µM): 1.17
- relative viability ([8]; first compound 0.04 µM): 0.679
- relative viability ([8]; first compound 0.1265 µM): 0.894
- relative viability ([8]; first compound 0.4 µM): 0.815
- relative viability ([8]; first compound 1.265 µM): 0.668
- relative viability ([8]; first compound 4 µM): 1.01
- relative viability ([9]; first compound 0.04 µM): 1.09
- relative viability ([9]; first compound 0.1265 µM): 1.11
- relative viability ([9]; first compound 0.4 µM): 1.14
- relative viability ([9]; first compound 1.265 µM): 1.15
- relative viability ([9]; first compound 4 µM): 0.674
- relative viability ([10]; first compound 0.04 µM): 0.586
- relative viability ([10]; first compound 0.1265 µM): 0.624
- relative viability ([10]; first compound 0.4 µM): 0.682
- relative viability ([10]; first compound 4 µM): 0.669
- relative viability ([11]; first compound 0.04 µM): 0.817
- relative viability ([11]; first compound 0.1265 µM): 0.861
- relative viability ([11]; first compound 0.4 µM): 0.862
- relative viability ([11]; first compound 1.265 µM): 0.852
- relative viability ([11]; first compound 4 µM): 0.92
- relative viability ([12]; first compound 0.04 µM): 0.85
- relative viability ([12]; first compound 0.1265 µM): 1.07
- relative viability ([12]; first compound 0.4 µM): 0.912
- relative viability ([12]; first compound 1.265 µM): 0.964
- relative viability ([12]; first compound 4 µM): 0.888
- relative viability ([13]; first compound 0.04 µM): 1.14
- relative viability ([13]; first compound 0.1265 µM): 1.19
- relative viability ([13]; first compound 0.4 µM): 1.19
- relative viability ([13]; first compound 1.265 µM): 0.803
- relative viability ([13]; first compound 4 µM): 1.31
- relative viability ([14]; first compound 0.04 µM): 1.02
- relative viability ([14]; first compound 0.1265 µM): 1.04
- relative viability ([14]; first compound 0.4 µM): 1.04
- relative viability ([14]; first compound 1.265 µM): 0.945
- relative viability ([14]; first compound 4 µM): 1.19
- relative viability ([15]; first compound 0.04 µM): 1.03
- relative viability ([15]; first compound 0.1265 µM): 0.913
- relative viability ([15]; first compound 0.4 µM): 0.939
- relative viability ([15]; first compound 4 µM): 0.734
- relative viability ([16]; first compound 0.04 µM): 0.817
- relative viability ([16]; first compound 0.1265 µM): 0.968
- relative viability ([16]; first compound 0.4 µM): 0.899
- relative viability ([16]; first compound 1.265 µM): 0.767
- relative viability ([16]; first compound 4 µM): 1.17
- relative viability ([17]; first compound 0.04 µM): 1.07
- relative viability ([17]; first compound 0.1265 µM): 1.11
- relative viability ([17]; first compound 0.4 µM): 1.15
- relative viability ([17]; first compound 1.265 µM): 1.14
- relative viability ([17]; first compound 4 µM): 1.09
- relative viability ([18]; first compound 0.04 µM): 0.337
- relative viability ([18]; first compound 0.1265 µM): 0.336
- relative viability ([18]; first compound 0.4 µM): 0.179
- relative viability ([18]; first compound 1.265 µM): 0.221
- relative viability ([18]; first compound 4 µM): 0.324
- relative viability ([19]; first compound 0.04 µM): 0.73
- relative viability ([19]; first compound 0.1265 µM): 0.81
- relative viability ([19]; first compound 0.4 µM): 0.784
- relative viability ([19]; first compound 1.265 µM): 0.81
- relative viability ([19]; first compound 4 µM): 1.41
- relative viability ([20]; first compound 0.04 µM): 0.862
- relative viability ([20]; first compound 0.1265 µM): 0.837
- relative viability ([20]; first compound 0.4 µM): 0.92
- relative viability ([20]; first compound 1.265 µM): 0.835
- relative viability ([20]; first compound 4 µM): 0.763
- relative viability ([21]; first compound 0.04 µM): 1.02
- relative viability ([21]; first compound 0.1265 µM): 1.09
- relative viability ([21]; first compound 0.4 µM): 0.991
- relative viability ([21]; first compound 1.265 µM): 1.07
- relative viability ([21]; first compound 4 µM): 1.19
- relative viability ([22]; first compound 0.04 µM): 0.662
- relative viability ([22]; first compound 0.1265 µM): 0.536
- relative viability ([22]; first compound 0.4 µM): 0.821
- relative viability ([22]; first compound 1.265 µM): 0.399
- relative viability ([22]; first compound 4 µM): 0.586
- relative viability ([23]; first compound 0.04 µM): 0.711
- relative viability ([23]; first compound 0.1265 µM): 0.513
- relative viability ([23]; first compound 0.4 µM): 0.515
- relative viability ([23]; first compound 1.265 µM): 0.561
- relative viability ([23]; first compound 4 µM): 0.818

From the supplement of paper PMC10307832
